{"source": "ChEMBL document CHEMBL1201862", "about": "“PubChem BioAssay data set” (2004)", "assay_in_all_cases": "NCI-60 cell line screen, 48 h", "key": {"786-0": {"test_system": "786-0"}, "A498": {"test_system": "A498"}, "A549": {"test_system": "A549"}, "ACHN": {"test_system": "ACHN"}, "BT-549": {"test_system": "BT-549"}, "CAKI-1": {"test_system": "CAKI-1"}, "CCRF-CEM": {"test_system": "CCRF-CEM"}, "COLO 205": {"test_system": "COLO 205"}, "DU-145": {"test_system": "DU-145"}, "EKVX": {"test_system": "EKVX"}, "HCC 2998": {"test_system": "HCC 2998"}, "HCT-116": {"test_system": "HCT-116"}, "HCT-15": {"test_system": "HCT-15"}, "HL-60": {"test_system": "HL-60"}, "HOP-62": {"test_system": "HOP-62"}, "HOP-92": {"test_system": "HOP-92"}, "HT-29": {"test_system": "HT-29"}, "Hs-578T": {"test_system": "Hs-578T"}, "IGROV-1": {"test_system": "IGROV-1"}, "K562": {"test_system": "K562"}, "KM12": {"test_system": "KM12"}, "LOX IMVI": {"test_system": "LOX IMVI"}, "M14": {"test_system": "M14"}, "MCF7": {"test_system": "MCF7"}, "MDA-MB-231": {"test_system": "MDA-MB-231"}, "MDA-MB-435": {"test_system": "MDA-MB-435"}, "MDA-N": {"test_system": "MDA-N"}, "MOLT-4": {"test_system": "MOLT-4"}, "Malme-3M": {"test_system": "Malme-3M"}, "NCI-H226": {"test_system": "NCI-H226"}, "NCI-H23": {"test_system": "NCI-H23"}, "NCI-H460": {"test_system": "NCI-H460"}, "NCI-H522": {"test_system": "NCI-H522"}, "NCI/ADR-RES": {"test_system": "NCI/ADR-RES"}, "OVCAR-3": {"test_system": "OVCAR-3"}, "OVCAR-4": {"test_system": "OVCAR-4"}, "OVCAR-5": {"test_system": "OVCAR-5"}, "OVCAR-8": {"test_system": "OVCAR-8"}, "PC-3": {"test_system": "PC-3"}, "RPMI-8226": {"test_system": "RPMI-8226"}, "RXF 393": {"test_system": "RXF 393"}, "SF-268": {"test_system": "SF-268"}, "SF-295": {"test_system": "SF-295"}, "SF-539": {"test_system": "SF-539"}, "SK-MEL-28": {"test_system": "SK-MEL-28"}, "SK-MEL-5": {"test_system": "SK-MEL-5"}, "SK-OV-3": {"test_system": "SK-OV-3"}, "SN12C": {"test_system": "SN12C"}, "SNB-19": {"test_system": "SNB-19"}, "SNB-75": {"test_system": "SNB-75"}, "SR": {"test_system": "SR"}, "SW-620": {"test_system": "SW-620"}, "T47D": {"test_system": "T47D"}, "TK-10": {"test_system": "TK-10"}, "U-251": {"test_system": "U-251"}, "UACC-257": {"test_system": "UACC-257"}, "UACC-62": {"test_system": "UACC-62"}, "UO-31": {"test_system": "UO-31"}}, "note": "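Protocol summary: plate cells (96-well), add compound at 5 concentrations, incubate 48 h, interpolate endpoints linearly. GI50 = concentration required for 50% inhibition of growth.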 Calls of active or inactive are those of the source. No stated cut-off is given here; in the data, active = GI50 up to about 1.1 µM and inactive = higher.", "data": [{"smiles": "C=C(Cl)[C@](Cl)(CBr)CC[C@@H](Br)C(C)(C)Cl", "note": "[HALOMON]", "values": [{"measurement": "GI50", "setting": "786-0", "value": "147 nM (active)"}, {"measurement": "GI50", "setting": "A498", "value": "1970 nM (inactive)"}, {"measurement": "GI50", "setting": "A549", "value": "2120 nM (inactive)"}, {"measurement": "GI50", "setting": "ACHN", "value": "1010 nM (active)"}, {"measurement": "GI50", "setting": "BT-549", "value": "1290 nM (inactive)"}, {"measurement": "GI50", "setting": "CAKI-1", "value": "337 nM (active)"}, {"measurement": "GI50", "setting": "CCRF-CEM", "value": "14400 nM (inactive)"}, {"measurement": "GI50", "setting": "COLO 205", "value": "1840 nM (inactive)"}, {"measurement": "GI50", "setting": "DU-145", "value": "1100 nM (active)"}, {"measurement": "GI50", "setting": "EKVX", "value": "3640 nM (inactive)"}, {"measurement": "GI50", "setting": "HCC 2998", "value": "1500 nM (inactive)"}, {"measurement": "GI50", "setting": "HCT-116", "value": "392 nM (active)"}, {"measurement": "GI50", "setting": "HCT-15", "value": 2010, "unit": "nM"}, {"measurement": "GI50", "setting": "HL-60", "value": "421 nM (active)"}, {"measurement": "GI50", "setting": "HOP-62", "value": "230 nM (active)"}, {"measurement": "GI50", "setting": "HOP-92", "value": "378 nM (active)"}, {"measurement": "GI50", "setting": "HT-29", "value": "783 nM (active)"}, {"measurement": "GI50", "setting": "Hs-578T", "value": "611 nM (active)"}, {"measurement": "GI50", "setting": "IGROV-1", "value": "6670 nM (inactive)"}, {"measurement": "GI50", "setting": "K562", "value": "916 nM (active)"}, {"measurement": "GI50", "setting": "KM12", "value": "927 nM (active)"}, {"measurement": "GI50", "setting": "LOX IMVI", "value": "17700 nM (inactive)"}, {"measurement": "GI50", "setting": "M14", "value": "15700 nM (inactive)"}, {"measurement": "GI50", "setting": "MCF7", "value": "822 nM (active)"}, {"measurement": "GI50", "setting": "MDA-MB-231", "value": "1160 nM (inactive)"}, {"measurement": "GI50", "setting": "MDA-MB-435", "value": "1590 nM (inactive)"}, {"measurement": "GI50", "setting": "MDA-N", "value": "959 nM (active)"}, {"measurement": "GI50", "setting": "MOLT-4", "value": "12800 nM (inactive)"}, {"measurement": "GI50", "setting": "Malme-3M", "value": "11500 nM (inactive)"}, {"measurement": "GI50", "setting": "NCI-H226", "value": "17000 nM (inactive)"}, {"measurement": "GI50", "setting": "NCI-H23", "value": "11400 nM (inactive)"}, {"measurement": "GI50", "setting": "NCI-H460", "value": "955 nM (active)"}, {"measurement": "GI50", "setting": "NCI-H522", "value": "15500 nM (inactive)"}, {"measurement": "GI50", "setting": "NCI/ADR-RES", "value": "1690 nM (inactive)"}, {"measurement": "GI50", "setting": "OVCAR-3", "value": "791 nM (active)"}, {"measurement": "GI50", "setting": "OVCAR-4", "value": "1460 nM (inactive)"}, {"measurement": "GI50", "setting": "OVCAR-5", "value": "1560 nM (inactive)"}, {"measurement": "GI50", "setting": "OVCAR-8", "value": "1270 nM (inactive)"}, {"measurement": "GI50", "setting": "PC-3", "value": "319 nM (active)"}, {"measurement": "GI50", "setting": "RPMI-8226", "value": "60.7 nM (active)"}, {"measurement": "GI50", "setting": "RXF 393", "value": "121 nM (active)"}, {"measurement": "GI50", "setting": "SF-268", "value": "515 nM (active)"}, {"measurement": "GI50", "setting": "SF-295", "value": "1020 nM (active)"}, {"measurement": "GI50", "setting": "SF-539", "value": "562 nM (active)"}, {"measurement": "GI50", "setting": "SK-MEL-28", "value": "1730 nM (inactive)"}, {"measurement": "GI50", "setting": "SK-MEL-5", "value": "12300 nM (inactive)"}, {"measurement": "GI50", "setting": "SK-OV-3", "value": "9570 nM (inactive)"}, {"measurement": "GI50", "setting": "SN12C", "value": "3230 nM (inactive)"}, {"measurement": "GI50", "setting": "SNB-19", "value": "1460 nM (inactive)"}, {"measurement": "GI50", "setting": "SNB-75", "value": "449 nM (active)"}, {"measurement": "GI50", "setting": "SR", "value": "7210 nM (inactive)"}, {"measurement": "GI50", "setting": "SW-620", "value": "2070 nM (inactive)"}, {"measurement": "GI50", "setting": "T47D", "value": "3180 nM (inactive)"}, {"measurement": "GI50", "setting": "TK-10", "value": "1810 nM (inactive)"}, {"measurement": "GI50", "setting": "U-251", "value": "181 nM (active)"}, {"measurement": "GI50", "setting": "UACC-257", "value": "1400 nM (inactive)"}, {"measurement": "GI50", "setting": "UACC-62", "value": "3190 nM (inactive)"}, {"measurement": "GI50", "setting": "UO-31", "value": "959 nM (active)"}]}]}
